# Source: patent US8461199B2, “Transition metal complexes of a bis[thio-hydrazide amide] compound” (Synta Pharmaceuticals Corp., priority 2008, dated 2013)
# What was measured:
# [1] = system: stage IV metastatic melanoma; conditions: in combination with paclitaxel, relative to patients treated with paclitaxel alone; cited from earlier work
# M14 melanoma cells = assay: Cytotoxicity in confluent M14 cells, cell viability by CCK8 assay; type: cell-based; conditions: Homo sapiens, 48 h incubation, 0.25% DMSO, n=4
# Method: M14 melanoma cells were seeded at 50,000 cells per well of 96-well plate in 100 μl of Dulbecco's minimum essential medium (DMEM) supplemented with 10% fetal bovine serum. Cells were cultured at 37° C. under 5% CO2-95% air. After 16 hours of incubation, the test compound was added to the cell culture. The compound was first diluted in 100% dimethyl sulfoxide (DMSO) at 400-fold of the final concentrations actually used in the assay. The DMSO solution was next diluted 20 fold with the culture medium, and then finally added to the assay wells at another 20-fold dilution. Assay medium included the test compound with concentrations as indicated with 0.25% DMSO. Cell viability was measured with a CCK8 assay (as described in the Technical Manual for Cell Counting Kit-8, Product #CK04-11, CK04-13 and CK04-20, Dojindo Molecular Technologies, Inc. MD, Tantular, I. S., et al. Tropical Medicine and International Health, 8(6), 569-574, 2003) in the last 15 minutes after a 48 h incubation with the test compound. Each bar of the figure expresses average percent inhibition against vehicle (0.25% DMSO) control (n=4).
smiles,measurement,setting,value
"CN(NC(=O)CC(=O)NN(C)C(=S)c1ccccc1)C(=S)c1ccccc1 [compound A, N-malonyl-bis(N′-methyl-N′-thiobenzoylhydrazide)]",time to progression,[1],increase the time to progression
same,IC50,M14 melanoma cells,> 12.5 µM
